Assay: Log P by HPLC on reversed phase columns (EEC directive 79/831 Annex V.A8)
Format: physicochemical
Conditions: method [a]
In short: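 Reversed-phase HPLC per EEC 79/831 Annex V.A8, LC-UV with 10→95% acetonitrile linear gradient; eluent [a] 0.1% formic acid (acidic), [b] 0.001 M ammonium acetate (neutral), [c] 0.1% phosphoric acid (acidic). Calibrated with C3–C16 straight-chain alkan-2-ones, linear interpolation of retention times; multiple values joined by "+".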

Structure (SMILES) | LogP
CCOC(=O)C(CO)NC(=O)c1sc(C#N)c(Cl)c1C (stereo not drawn) [1.0835] | 2.12^[a]
COC(=O)C(CCSC)NC(=O)c1sc(C#N)c(Cl)c1C (stereo not drawn) [1.0836] | 3.03^[a]
N#CCNC(=O)c1sc(Br)c(Cl)c1Br [1.0837] | 2.75^[a]
CCOC(=O)C(CCSC)NC(=O)c1sc(Br)c(Cl)c1Br (stereo not drawn) [1.0838] | 4.55^[a]
COC(=O)C(C)(C)NC(=O)c1sc(Br)c(Cl)c1Br [1.0840] | 3.81^[a]
CCOC(=O)[C@H](CO)NC(=O)c1sc(Br)c(Cl)c1C [1.0841] | 2.59^[a]
CCOC(=O)[C@H](CO)NC(=O)c1sc(Cl)c(Br)c1C [1.0842] | 2.62^[a]
CCOC(=O)[C@H](CO)NC(=O)c1sc(Br)c(Br)c1C [1.0843] | 2.64^[a]
CCOC(=O)C(CO)NC(=O)c1sc(Br)c(Cl)c1C (stereo not drawn) [1.0844] | 2.60^[a]
CCOC(=O)CN(OC)C(=O)c1sc(C#N)c(Cl)c1Cl [1.0845] | 3.06^[a]
CCOC(=O)[C@H](CO)NC(=O)c1sc(C#N)c(Br)c1C [1.0846] | 2.11^[a]
CCOC(=O)C(CO)NC(=O)c1sc(Br)c(Cl)c1Br (stereo not drawn) [1.0847] | 2.89^[a]
CCOC(=O)CNC(=O)c1sc(C)c(Cl)c1Cl [1.0848] | 2.82^[a]
COC(=O)C1(NC(=O)c2sc(Br)c(Br)c2Cl)CCC1 [1.0849] | 3.75^[a]
N#CCNC(=O)c1sc(Br)c(Br)c1Cl [1.0850] | 2.67^[a]
COC(=O)CNC(=S)c1sc(Cl)c(Cl)c1Br [1.0851] | 4.09^[a]
COC(=O)CNC(=S)c1sc(Br)c(Br)c1Cl [1.0852] | 4.07^[a]
CCOC(=O)C1(NC(=S)c2sc(Cl)c(Br)c2Cl)CCC1 [1.0853] | 5.04^[a]
O=C(O)CNC(=S)c1sc(Cl)c(Cl)c1Br [1.0854] | 3.11^[a]
C#CCOC(=O)CNC(=O)c1sc(Br)c(Br)c1F [1.0855] | 2.87^[a]
O=C(CNC(=O)c1sc(Br)c(Br)c1F)OC1CC1 [1.0856] | 3.02^[a]
C=CCOC(=O)CNC(=O)c1sc(Br)c(Br)c1F [1.0857] | 3.13^[a]
N#CCCOC(=O)CNC(=O)c1sc(Br)c(Br)c1F [1.0858] | 2.48^[a]
O=C(CNC(=O)c1sc(Br)c(Br)c1F)OCC1CC1 [1.0859] | 3.39^[a]
CCCCOC(=O)CNC(=O)c1sc(Br)c(Br)c1F [1.0860] | 3.79^[a]

Structure (SMILES) | LogP
O=C(O)CNC(=S)c1sc(Br)c(Br)c1Cl [1.0861] | 3.08^[a]
O=C(CNC(=O)c1sc(Br)c(Br)c1F)OC1CCCC1 [1.0862] | 3.84^[a]
O=C(CNC(=O)c1sc(Br)c(Br)c1F)Oc1ccccc1 [1.0863] | 3.58^[a]
COC(=O)CNC(=S)c1sc(C#N)c(Br)c1C [1.0864] | 2.92^[a]
CCOC(=O)C(NC(=S)c1sc(Br)c(Br)c1F)C1CC1 (stereo not drawn) [1.0865] | 4.99^[a]
N#CC1(NC(=O)c2sc(Br)c(Br)c2Cl)CCSCC1 [1.0868] | 3.71^[a]
N#CC1(NC(=O)c2sc(Br)c(Br)c2F)CCSCC1 [1.0871] | 3.40^[a]
CC(C#N)(NC(=O)c1sc(Br)c(Br)c1F)C1CC1 (stereo not drawn) [1.0872] | 3.47^[a]
N#CC1(NC(=O)c2sc(Br)c(Br)c2Cl)CCC1 [1.0873] | 3.35^[a]
CC(C)C(C#N)NC(=O)c1sc(Br)c(Br)c1Cl (stereo not drawn) [1.0874] | 3.88^[a]
O=C(O)CNC(=O)c1sc(Cl)c(Br)c1Cl [1.0875] | 2.18^[a]
O=C(O)C(Cc1ccccc1)NC(=S)c1sc(Br)c(Br)c1F (stereo not drawn) [1.0876] | 4.17^[a]
CCOC(=O)CNC(=S)c1sc(C#N)c(Br)c1C [1.0877] | 3.30^[a]
COC(=O)CNC(=S)c1cc(Br)c(Cl)s1 [1.0878] | 3.35^[a]
CCCOC(=O)C1(NC(=O)c2sc(Cl)c(Cl)c2Br)CCC1 [1.0879] | 4.74^[a]
O=C(NC1(C(=O)OC2CCCCC2)CCC1)c1sc(Cl)c(Cl)c1Br [1.0880] | 5.89^[a]
NC(=S)C1(NC(=O)c2sc(Cl)c(Cl)c2Br)CC1 [1.0881] | 2.77^[a]
CNC(=O)C1(NC(=O)c2sc(Cl)c(Cl)c2Br)CC1 [1.0882] | 2.28^[a]
O=C(CNC(=O)c1sc(Br)c(Br)c1Cl)OC1CCOCC1 [1.0883] | 3.14^[a]
CC(C)(C)OC(=O)C(NC(=O)c1sc(Br)c(Br)c1Cl)C1CC1 (stereo not drawn) [1.0884] | 5.36^[a]
O=C(NC(C(=O)OC1CCC1)C1CC1)c1sc(Br)c(Br)c1Cl (stereo not drawn) [1.0885] | 5.08^[a]
CC(C)OC(=O)C(NC(=O)c1sc(Br)c(Br)c1Cl)C1CC1 (stereo not drawn) [1.0886] | 4.89^[a]
O=C(NC1(C(=O)OCC2CC2)CCC1)c1sc(Br)c(Br)c1Cl [1.0887] | 4.81^[a]
O=C(NC1(C(=O)OCc2ccccc2)CCC1)c1sc(Cl)c(Cl)c1Br [1.0888] | 5.00^[a]

Continued, values first:

LogP | Structure (SMILES)
4.93^[a] | O=C(NC1(C(=O)OC2CCC2)CCC1)c1sc(Cl)c(Cl)c1Br [1.0889]
5.20^[a] | CCCCOC(=O)C1(NC(=O)c2sc(Cl)c(Cl)c2Br)CCC1 [1.0890]
5.28^[a] | CC(C)(C)OC(=O)C1(NC(=O)c2sc(Cl)c(Cl)c2Br)CCC1 [1.0891]
2.64^[a] | COC(=O)CNC(=O)c1sc(Cl)c(C)c1Cl [1.0892]
3.07^[a] | CCOC(=O)CNC(=O)c1sc(Cl)c(C)c1Cl [1.0893]
1.69^[a] | NC(=O)CNC(=O)c1sc(Br)c(Br)c1F [1.0894]
2.38^[a] | N#CNC(=O)C1(NC(=O)c2sc(Br)c(Br)c2F)CC1 [1.0895]
2.25^[a] | NC(=S)CNC(=O)c1sc(Br)c(Br)c1F [1.0896]
2.67^[a] | COC(=O)C1(NC(=O)c2sc(C)c(Cl)c2Cl)CC1 [1.0897]
5.28^[a] | CC(C)(C)OC(=O)C1(NC(=O)c2sc(Br)c(Br)c2Cl)CC1 [1.0898]
2.23^[a] | CCOC(=O)CNC(=O)c1cc(Cl)c(F)s1 [1.0899]
2.42^[a] | NC(=S)C1(NC(=O)c2sc(Br)c(Br)c2F)CC1 [1.0900]
2.13^[a] | COC(=O)C1(NC(=O)c2cc(Cl)c(F)s2)CC1 [1.0901]
5.41^[a] | CC(C)(C)OC(=O)C(NC(=O)c1sc(Cl)c(Cl)c1Br)C1CC1 (stereo not drawn) [1.0902]
5.08^[a] | O=C(NC(C(=O)OC1CCC1)C1CC1)c1sc(Cl)c(Cl)c1Br (stereo not drawn) [1.0903]
4.89^[a] | CC(C)OC(=O)C(NC(=O)c1sc(Cl)c(Cl)c1Br)C1CC1 (stereo not drawn) [1.0904]
4.78^[a] | O=C(NC1(C(=O)OCC2CC2)CCC1)c1sc(Cl)c(Cl)c1Br [1.0905]
1.90^[a] | COC(=O)CNC(=O)c1cc(Cl)c(F)s1 [1.0906]
5.20^[a] | CCCCOC(=O)C1(NC(=O)c2sc(Br)c(Br)c2Cl)CCC1 [1.0907]
4.97^[a] | O=C(NC1(C(=O)OC2CCC2)CCC1)c1sc(Br)c(Br)c1Cl [1.0908]

LogP | Structure (SMILES)
5.00^[a] | O=C(NC1(C(=O)OCc2ccccc2)CCC1)c1sc(Br)c(Br)c1Cl [1.0909]
2.58^[a] | C#CCOC(=O)CNC(=O)c1sc(Cl)c(Cl)c1C#N [1.0910]
2.63^[a] | C#CCOC(=O)CNC(=O)c1sc(C#N)c(Cl)c1Cl [1.0911]
3.00^[a] | C=CCOC(=O)C1(NC(=O)c2sc(C#N)c(Cl)c2Cl)CC1 [1.0912]
2.91^[a] | C=CCOC(=O)C1(NC(=O)c2sc(Cl)c(Cl)c2C#N)CC1 [1.0913]
1.34^[a] | Cc1c(C(=O)NCC(N)=O)sc(C#N)c1Cl [1.0914]
1.38^[a] | Cc1c(C(=O)NCC(N)=O)sc(C#N)c1Br [1.0915]
1.47^[a] | N#Cc1c(C(=O)NCC(N)=O)sc(Cl)c1Cl [1.0916]
4.78^[a] | CCCOC(=O)C1(NC(=O)c2sc(Br)c(Br)c2Cl)CCC1 [1.0917]
5.89^[a] | O=C(NC1(C(=O)OC2CCCCC2)CCC1)c1sc(Br)c(Br)c1Cl [1.0918]
2.80^[a] | NC(=S)C1(NC(=O)c2sc(Br)c(Br)c2Cl)CC1 [1.0919]
2.31^[a] | CNC(=O)C1(NC(=O)c2sc(Br)c(Br)c2Cl)CC1 [1.0920]
4.33^[a] | O=C(NC1(C(=O)OCC2CC2)CCC1)c1sc(Br)c(Br)c1F [1.0924]
4.78^[a] | CC(C)(C)OC(=O)C1(NC(=O)c2sc(Br)c(Br)c2F)CCC1 [1.0925]
4.74^[a] | CCCCOC(=O)C1(NC(=O)c2sc(Br)c(Br)c2F)CCC1 [1.0926]
4.59^[a] | O=C(NC1(C(=O)OCc2ccccc2)CCC1)c1sc(Br)c(Br)c1F [1.0927]
4.30^[a] | CCCOC(=O)C1(NC(=O)c2sc(Br)c(Br)c2F)CCC1 [1.0928]
5.28^[a] | O=C(NC1(C(=O)OC2CCCCC2)CCC1)c1sc(Br)c(Br)c1F [1.0929]
4.47^[a] | O=C(NC1(C(=O)OC2CCC2)CCC1)c1sc(Br)c(Br)c1F [1.0930]

Same assay, conditions: method marker [a] given with each value; Table 1.1, compounds of formula (I)

LogP | Structure (SMILES)
3.81^[a] | CCOC(=O)CN(C(=O)c1sc(Br)c(Br)c1Cl)C1CC1 [1.0935]
3.80^[a] | CCOC(=O)CN(C(=O)c1sc(Cl)c(Br)c1Cl)C1CC1 [1.0936]
3.81^[a] | CCOC(=O)CN(C(=O)c1sc(Cl)c(Cl)c1Br)C1CC1 [1.0937]
3.64^[a] | CCOC(=O)CN(C(=O)c1sc(Br)c(Br)c1F)C1CC1 [1.0938]
4.64^[a] | COC(=O)C(C)(Cc1ccccc1)NC(=O)c1sc(Br)c(Br)c1F (stereo not drawn) [1.0954]
4.52^[a] | COC(=O)C(Cc1ccc(Cl)cc1)NC(=O)c1sc(Br)c(Br)c1F (stereo not drawn) [1.0955]
3.20^[a] | C#CCOC(=O)CNC(=O)c1sc(Br)c(Br)c1Cl [1.0959]
3.39^[a] | O=C(CNC(=O)c1sc(Br)c(Br)c1Cl)OC1CC1 [1.0960]
3.50^[a] | C=CCOC(=O)CNC(=O)c1sc(Br)c(Br)c1Cl [1.0961]
2.81^[a] | C=CCOC(=O)C1(NC(=O)c2sc(C#N)c(Br)c2C)CC1 [1.0962]
2.61^[a] | C#CCOC(=O)C1(NC(=O)c2sc(C#N)c(Br)c2C)CC1 [1.0963]

Source: patent US12642270B2, “Substituted thiophene carboxamides, thiophene carboxylic acids and derivatives thereof” (Bayer Aktiengesellschaft, priority 2019, dated 2026)
